Source: article PMC7663531, “Synthesis, Molecular Docking Screening and Anti-Proliferative Potency Evaluation of Some New Imidazo[2,1-b]Thiazole Linked Thiadiazole Conjugates” (Molecules, 2020)

Legend:
[1] = tested on: BALB/3T3 (murine fibroblast); assay: Anti-proliferative assay in vitro (SRB) on normal cell line BALB/3T3; assay type: cell-based; conditions: Mus musculus, 72 h exposure, tested from 100 to 0.1 µg/mL, Nd: no detectable activity in the used concentrations, DMSO 1%, read-out: BALAB/3T3 IC50 ± SD
Protocol: (§1) The results of anti-proliferative activity were calculated based on the IC50 (inhibitory concentration 50%), the concentration of a tested compound which inhibits 50% of the cells population. IC50 esteems were determined for each examination independently and mean qualities ± SD are introduced in Table 1. The movement of every subordinate at every fixation was tried in three-fold in a solitary test; which was rehashed 3–5 times. The aftereffects of the investigations on against proliferative action of tried mixes are summed up in Table 1
(§2) Cell lines: Hep-G2 (human hepatic disease) and BALB/3T3 (murine fibroblast) are being kept up in the Institute of Cancer, Cairo, Egypt. All malignant growth cell lines were obtained from American Type Culture Collection (Rockville, Maryland, USA) and kept up in the Institute of Cancer. HepG2 cells were refined in Eagle’s minimum essential medium (EMEM) and supplemented with 10% FBS; DMEM and RPMI1640 were choices for that function also. Suction included new culture medium each 2–3 days. HepG2 cell multiplying time was 48 h. BALB/3T3 cell line was refined in DMEM and enhanced with 2 mM L-glutamine, 10% fetal ox-like serum (GE Healthcare, Logan, UT, USA). To entry cells, cell monolayer with 1× PBS were flushed twice and pre-warmed (37 °C) 0.05% Trypsin-EDTA arrangement was added to cover the lower part of the jar; brooded for 5–7 min. As cells withdrew, the trypsin was killed by including 4× volume of complete development medium with 10% FBS and delicately suspended the cells by pipetting. To abstain from clustering, the phones were not upset by shaking the jar while sitting tight for separation. Split cells 1:4 at regular intervals or 1:8 like clockwork. Societies had been brooded at 37 °C in a humidified climate with 5% CO2.
(§3) All compounds were broken up in DMSO (stock arrangement 10 mg/mL) and consequently weakened in culture medium to arrive at the necessary fixations (going from 100 to 0.1 µg/mL).
(§4) 24 h before expansion of the tried exacerbates, the cells were plated in 96-well plates (Sarstedt, Germany) at thicknesses of 1 × 10^4 cells per well. The examination was performed after 72 h introduction to shifting centralizations of the tried mixes. The in vitro cytotoxic impact of all mixes was analyzed utilizing the SRB measure.
(§5) The subtleties of this strategy were depicted by Skehan et al.. The cells were joined to the lower part of plastic wells by fixing them with cold half TCA (trichloroacetic corrosive, Sigma-Aldrich Chemie GmbH, Steinheim, Germany) on the head of the way of life medium in each well. The plates were hatched at 4 °C for 1 h and afterward washed multiple times with faucet water. The cell material fixed with TCA was recolored with 0.4% sulphorhodamine B (SRB, Sigma-Aldrich Chemie GmbH, Steinheim, Germany) disintegrated in 1% acidic corrosive for 30 min. Unbound color was taken out by flushing (multiple times) in 1% acidic corrosive. The protein-bound color was removed with 10 mMunbufferedTris base for assurance of the optical thickness (λ = 540 nm) in Synergy H4 multi-mode microplate peruser (BioTek Instruments, Winooski, VT, USA).

HepG2 cells = assay: Anti-proliferative assay in vitro (SRB) on hepatic cancer cell line HepG2; assay type: cell-based; conditions: Homo sapiens, 72 h exposure, tested from 100 to 0.1 µg/mL, Nd: no detectable activity in the used concentrations, DMSO 1%, read-out: HepG2 IC50 ± SD
Protocol: as §1, §2, §3, §4, §5

SMILES | melting point [°C] | IC50 (HepG2 cells) [µg/mL] | IC50 [1] [µg/mL]
CSC(=S)N/N=C(\C)c1sc2nc(-c3ccc(C)cc3)cn2c1C [Compound 3, methyl 2-(1-(3-methyl-6-(p-tolyl)imidazo[2,1-b]thiazol-2-yl)ethylidene) hydrazinecarbodithioate] | 182 to 184 | – | –
CC(=NN=c1sc(-c2ccccc2)nn1-c1cccc(-n2nc(-c3ccccc3)sc2=NN=C(C)c2sc3nc(-c4ccc(C)cc4)cn3c2C)c1)c1sc2nc(-c3ccc(C)cc3)cn2c1C [Compound 10, 1,3-Bis(2-((1-(3-methyl-6-(p-tolyl)imidazo[2,1-b]thiazol-2-yl)ethylidene)hydrazono)-5-phenyl-1,3,4-thiadiazol-3(2H)-yl)benzene] | > 300 | 23.5 ± 4.48 | 26.2 ± 3.21
CC(=O)c1nn(-c2cccc(-n3nc(C(C)=O)s/c3=N\N=C(/C)c3sc4nc(-c5ccc(C)cc5)cn4c3C)c2)/c(=N/N=C(\C)c2sc3nc(-c4ccc(C)cc4)cn3c2C)s1 [Compound 11, 1,1’-(4,4’-(1,3-Phenylene)bis(5-((1-(3-methyl-6-(p-tolyl)imidazo[2,1-b]thiazol-2-yl)ethylidene)hydrazono)-4,5-dihydro-1,3,4-thiadiazole-4,2-diyl))diethanone] | 292 to 294 | – | –
CC(=O)c1nn(-c2ccc(S(=O)(=O)c3ccc(-n4nc(C(C)=O)s/c4=N\N=C(/C)c4sc5nc(-c6ccc(C)cc6)cn5c4C)cc3)cc2)/c(=N/N=C(\C)c2sc3nc(-c4ccc(C)cc4)cn3c2C)s1 [Compound 12, 1,1’-(4,4’-(Sulfonylbis(4,1-phenylene))bis(5-((1-(3-methyl-6-(p-tolyl)imidazo[2,1-b]thiazol-2-yl)ethylidene)hydrazono)-4,5-dihydro-1,3,4-thiadiazole-4,2-diyl))diethanone] | > 300 | 12.7 ± 1.36 | 8.34 ± 1.81
COc1cccc2c1C(=O)c1c(O)c3c(c(O)c1C2=O)C[C@@](O)(C(=O)CO)C[C@@H]3O[C@H]1C[C@H](N)[C@H](O)[C@H](C)O1 [Doxorubicin, reference compound] | – | 3.56 ± 0.46 | 3.21 ± 0.32

The next lines start with results.

melting point [°C] | IC50 (HepG2 cells) [µg/mL] | SMILES | IC50 [1] [µg/mL]
220 to 222 | 63.3 ± 12.8 | CC(=O)c1nn(-c2ccc(C)cc2)c(=NN=C(C)c2sc3nc(-c4ccc(C)cc4)cn3c2C)s1 [Compound 6a, 1-(5-((1-(3-Methyl-6-(p-tolyl)imidazo[2,1-b]thiazol-2-yl)ethylidene)hydrazono)-4-(p-tolyl)-4,5-dihydro-1,3,4-thiadiazol-2-yl)ethanone] | 25.1 ± 12
216 to 218 | 59.2 ± 9.27 | COc1ccc(-n2nc(C(C)=O)sc2=NN=C(C)c2sc3nc(-c4ccc(C)cc4)cn3c2C)cc1 [Compound 6b, 1-(4-(4-Methoxyphenyl)-5-((1-(3-methyl-6-(p-tolyl)imidazo[2,1-b]thiazol-2-yl)ethylidene) hydrazono)-4,5-dihydro-1,3,4-thiadiazol-2-yl)ethanone] | –
192 to 194 | – | CC(=O)c1nn(-c2ccc(Cl)cc2)c(=NN=C(C)c2sc3nc(-c4ccc(C)cc4)cn3c2C)s1 [Compound 6c, 1-(4-(4-Chlorophenyl)-5-((1-(3-methyl-6-(p-tolyl)imidazo[2,1-b]thiazol-2-yl)ethylidene) hydrazono)-4,5-dihydro-1,3,4-thiadiazol-2-yl)ethanone] | –
235 to 237 | 41.1 ± 8.32 | CCOC(=O)c1nn(-c2ccccc2)c(=NN=C(C)c2sc3nc(-c4ccc(C)cc4)cn3c2C)s1 [Compound 6d, Ethyl 5-((1-(3-methyl-6-(p-tolyl)imidazo[2,1-b]thiazol-2-yl)ethylidene)hydrazono)-4-phenyl-4,5-dihydro-1,3,4-thiadiazole-2-carboxylate] | –
117 to 119 | – | CCOC(=O)c1nn(-c2ccc(C)cc2)c(=NN=C(C)c2sc3nc(-c4ccc(C)cc4)cn3c2C)s1 [Compound 6e, Ethyl 5-((1-(3-methyl-6-(p-tolyl)imidazo[2,1-b]thiazol-2-yl)ethylidene)hydrazono)-4-(p-tolyl)-4,5-dihydro-1,3,4-thiadiazole-2-carboxylate] | –
156 to 158 | 57.5 ± 6.61 | CCOC(=O)c1nn(-c2ccc(Br)cc2)c(=NN=C(C)c2sc3nc(-c4ccc(C)cc4)cn3c2C)s1 [Compound 6f, Ethyl 4-(4-bromophenyl)-5-((1-(3-methyl-6-(p-tolyl)imidazo[2,1-b]thiazol-2-yl)ethylidene) hydrazono)-4,5-dihydro-1,3,4-thiadiazole-2-carboxylate] | –
209 to 211 | 33.2 ± 8.25 | CC(=NN=c1sc(C(=O)Nc2ccccc2)nn1-c1ccccc1)c1sc2nc(-c3ccc(C)cc3)cn2c1C [Compound 6g, 5-((1-(3-Methyl-6-(p-tolyl)imidazo[2,1-b]thiazol-2-yl)ethylidene)hydrazono)-N,4-diphenyl-4,5-dihydro-1,3,4-thiadiazole-2-carboxamide] | 76.7 ± 4.14
241 to 243 | – | CC(=NN=c1sc(C(=O)Nc2ccccc2)nn1-c1ccc([N+](=O)[O-])cc1)c1sc2nc(-c3ccc(C)cc3)cn2c1C [Compound 6h, 5-((1-(3-Methyl-6-(p-tolyl)imidazo[2,1-b]thiazol-2-yl)ethylidene)hydrazono)-4-(4-nitrophenyl)-N-phenyl-4,5-dihydro-1,3,4-thiadiazole-2-carboxamide] | –
273 to 275 | – | CC(=NN=c1sc(-c2ccccc2)nn1-c1ccccc1)c1sc2nc(-c3ccc(C)cc3)cn2c1C [Compound 6i, 2-(1-((3,5-Diphenyl-1,3,4-thiadiazol-2(3H)-ylidene)hydrazono)ethyl)-3-methyl-6-(p-tolyl) imidazo[2,1-b]thiazole] | –
